According to patent US20110319416A1, “Subunit Selective NMDA Receptor Antagonists For The Treatment Of Neurological Conditions” (EMORY UNIVERSITY, priority 2009, published 2011):
Where two headings read alike, the source gives them in different places. Values belong to the molecule of their own block, whether it stands above or below them.

Experiments:
Format in all cases: cell-based
NR1/NR2B = NR1/NR2B (Rattus norvegicus, UniProt P35439+Q00960); assay: Two electrode voltage clamp, Xenopus oocytes expressing recombinant NR1/NR2B
Experimental: (§1) Quality of synthesized cRNA was assessed by gel electrophoresis, and quantity was estimated by spectroscopy and gel electrophoresis. Stage V and VI oocytes were surgically removed from the ovaries of large, well-fed and healthy Xenopus laevis anesthetized with 3-amino-benzoic acid ethyl ester (3 gm/l) as previously described. Clusters of isolated oocytes were incubated with 292 U/ml Worthington (Freehold, N.J.) type IV collagenase or 1.3 mg/ml collagenase (Life Technologies, Gaithersburg, MD; 17018-029) for 2 hr in Ca^2+-free solution comprised of (in mM) 115 NaCl, 2.5 KCl, and 10 HEPES, pH 7.5, with slow agitation to remove the follicular cell layer. Oocytes were then washed extensively in the same solution supplemented with 1.8 mM CaCl2 and maintained in Barth's solution comprised of (in mM): 88 NaCl, 1 KCl, 2.4 NaHCO3, 10 HEPES, 0.82 MgSO4, 0.33 Ca(NO3)2, and 0.91 CaCl2 and supplemented with 100 μg/m1 gentamycin, 10 μg/ml streptomycin, and 10 μg/ml penicillin. Oocytes were manually defolliculated and injected within 24 hrs of isolation with 3-5 ng of NR1 subunit cRNA and 7-10 ng of NR2 cRNA subunit in a 50 nl volume, or 5-10 ng of AMPA or kainate receptor cRNAs in a 50 nl volume, and incubated in Barth's solution at 18° C. for 1-7 d. Glass injection pipettes had tip sizes ranging from 10-20 microns, and were backfilled with mineral oil.
(§2) Two electrode voltage-clamp recordings were made 2-7 days post-injection as previously described. Oocytes were placed in a dual-track plexi-glass recording chamber with a single perfusion line that splits in a Y-configuration to perfuse two oocytes. Dual recordings were made at room temperature (23° C.) using two Warner OC725B two-electrode voltage clamp amplifiers, arranged as recommended by the manufacturer. Glass microelectrodes (1-10 Megaohms) were filled with 300 mM KCl (voltage electrode) or 3 M KCl (current electrode). The bath clamps communicated across silver chloride wires placed into each side of the recording chamber, both of which were assumed to be at a reference potential of 0 mV. Oocytes were perfused with a solution comprised of (in mM) 90 NaCl, 1 KCl, 10 HEPES, and 0.5 BaCl2; pH was adjusted by addition of 1-3 M NaOH of HC1 to 7.4. Oocytes were recorded under voltage clamp at −40 mV. […] In some experiments, 10 μM EDTA was obtained by adding a 1:1000 dilution of 10 mM EDTA, in order to chelate contaminant divalent ions such as Zn^2+. […] Concentration effect curves consisting of 4 to 8 concentrations were obtained in this manner. The baseline leak current at −40 mV was measured before and after recording, and the full recording linearly corrected for any change in leak current. […] Each experiment consisted of recordings from 3 to 10 oocytes obtained from a single frog. Results from multiple experiments were pooled, and the average percent responses at antagonist concentrations were fitted by the equation,
(§3) Percent Response=(100−minimum)/(1+([conc]/IC50)nH)+minimum

NR1/NR2A = NR1/NR2A (Rattus norvegicus, UniProt P35439+Q00959); assay: Two electrode voltage clamp, Xenopus oocytes expressing recombinant NR1/NR2A; conditions: for IC50: logistic fit, minimum forced to 0, read-out: 2A IC50
Experimental: as §1, §2, §3

NR1/NR2D = NR1/NR2D (Rattus norvegicus, UniProt P35439+Q62645); assay: Two electrode voltage clamp, Xenopus oocytes expressing recombinant NR1/NR2D; conditions: for remaining activity at 100 µM: read-out: 2D percent effect at the maximum tested concentration
Experimental: as §1, §2, §3

NR1/NR2C = NR1/NR2C (Rattus norvegicus, UniProt P35439+Q00961); assay: Two electrode voltage clamp, Xenopus oocytes expressing recombinant NR1/NR2C; conditions: for remaining activity at 100 µM: read-out: 2C percent effect at the maximum tested concentration
Experimental: as §1, §2, §3

[1] = at 100 μM, read-out: 2B percent effect at the maximum tested concentration
[2] = at 100 μM, read-out: 2A percent effect at the maximum tested concentration
[3] = logistic fit, minimum forced to 0, read-out: 2B IC50
[4] = logistic fit, minimum forced to 0, read-out: 2D IC50
[5] = logistic fit, minimum forced to 0, read-out: 2C IC50
[6] = read-out: 2B percent effect at the maximum tested concentration
[7] = read-out: 2A percent effect at the maximum tested concentration

NR1/NR2A, sequence (Q00959 23-1464, other chains not shown): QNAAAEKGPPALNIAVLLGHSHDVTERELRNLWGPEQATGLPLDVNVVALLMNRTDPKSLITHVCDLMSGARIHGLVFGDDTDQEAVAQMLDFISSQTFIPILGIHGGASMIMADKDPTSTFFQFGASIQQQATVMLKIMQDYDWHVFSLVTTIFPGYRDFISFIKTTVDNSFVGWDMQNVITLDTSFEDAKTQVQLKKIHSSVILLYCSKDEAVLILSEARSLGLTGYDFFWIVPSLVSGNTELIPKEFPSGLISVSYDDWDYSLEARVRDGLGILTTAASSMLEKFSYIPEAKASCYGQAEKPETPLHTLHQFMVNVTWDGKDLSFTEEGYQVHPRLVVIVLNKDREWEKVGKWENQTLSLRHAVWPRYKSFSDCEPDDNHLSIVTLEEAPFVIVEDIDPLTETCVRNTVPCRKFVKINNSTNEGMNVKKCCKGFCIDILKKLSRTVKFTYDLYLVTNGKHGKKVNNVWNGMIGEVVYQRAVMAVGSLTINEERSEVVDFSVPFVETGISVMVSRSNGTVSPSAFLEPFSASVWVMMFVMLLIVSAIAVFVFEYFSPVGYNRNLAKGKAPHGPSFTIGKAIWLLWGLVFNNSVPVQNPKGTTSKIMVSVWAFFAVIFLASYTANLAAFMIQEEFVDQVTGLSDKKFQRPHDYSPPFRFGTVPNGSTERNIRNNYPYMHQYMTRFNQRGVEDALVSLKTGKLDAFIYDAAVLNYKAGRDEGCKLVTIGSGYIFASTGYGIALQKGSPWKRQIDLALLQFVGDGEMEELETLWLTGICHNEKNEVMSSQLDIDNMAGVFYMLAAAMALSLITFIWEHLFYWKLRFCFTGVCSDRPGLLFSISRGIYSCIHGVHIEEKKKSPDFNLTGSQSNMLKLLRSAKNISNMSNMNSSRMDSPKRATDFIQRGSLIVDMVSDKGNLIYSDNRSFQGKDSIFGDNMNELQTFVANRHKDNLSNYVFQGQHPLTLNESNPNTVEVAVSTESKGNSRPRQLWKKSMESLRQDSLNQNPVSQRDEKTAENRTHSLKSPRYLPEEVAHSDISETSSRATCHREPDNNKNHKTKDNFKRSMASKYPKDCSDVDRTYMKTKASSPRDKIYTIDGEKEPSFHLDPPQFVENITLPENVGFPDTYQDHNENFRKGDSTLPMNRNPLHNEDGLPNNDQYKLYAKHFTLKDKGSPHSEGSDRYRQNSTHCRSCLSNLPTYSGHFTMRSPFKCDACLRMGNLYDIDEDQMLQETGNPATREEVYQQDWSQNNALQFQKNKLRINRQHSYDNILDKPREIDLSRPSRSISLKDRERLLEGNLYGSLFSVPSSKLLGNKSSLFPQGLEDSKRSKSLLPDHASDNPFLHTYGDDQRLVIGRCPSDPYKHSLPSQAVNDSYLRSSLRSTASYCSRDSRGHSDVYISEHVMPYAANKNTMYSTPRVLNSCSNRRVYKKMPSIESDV
NR1/NR2D, sequence (Q62645 28-1323, other chains not shown): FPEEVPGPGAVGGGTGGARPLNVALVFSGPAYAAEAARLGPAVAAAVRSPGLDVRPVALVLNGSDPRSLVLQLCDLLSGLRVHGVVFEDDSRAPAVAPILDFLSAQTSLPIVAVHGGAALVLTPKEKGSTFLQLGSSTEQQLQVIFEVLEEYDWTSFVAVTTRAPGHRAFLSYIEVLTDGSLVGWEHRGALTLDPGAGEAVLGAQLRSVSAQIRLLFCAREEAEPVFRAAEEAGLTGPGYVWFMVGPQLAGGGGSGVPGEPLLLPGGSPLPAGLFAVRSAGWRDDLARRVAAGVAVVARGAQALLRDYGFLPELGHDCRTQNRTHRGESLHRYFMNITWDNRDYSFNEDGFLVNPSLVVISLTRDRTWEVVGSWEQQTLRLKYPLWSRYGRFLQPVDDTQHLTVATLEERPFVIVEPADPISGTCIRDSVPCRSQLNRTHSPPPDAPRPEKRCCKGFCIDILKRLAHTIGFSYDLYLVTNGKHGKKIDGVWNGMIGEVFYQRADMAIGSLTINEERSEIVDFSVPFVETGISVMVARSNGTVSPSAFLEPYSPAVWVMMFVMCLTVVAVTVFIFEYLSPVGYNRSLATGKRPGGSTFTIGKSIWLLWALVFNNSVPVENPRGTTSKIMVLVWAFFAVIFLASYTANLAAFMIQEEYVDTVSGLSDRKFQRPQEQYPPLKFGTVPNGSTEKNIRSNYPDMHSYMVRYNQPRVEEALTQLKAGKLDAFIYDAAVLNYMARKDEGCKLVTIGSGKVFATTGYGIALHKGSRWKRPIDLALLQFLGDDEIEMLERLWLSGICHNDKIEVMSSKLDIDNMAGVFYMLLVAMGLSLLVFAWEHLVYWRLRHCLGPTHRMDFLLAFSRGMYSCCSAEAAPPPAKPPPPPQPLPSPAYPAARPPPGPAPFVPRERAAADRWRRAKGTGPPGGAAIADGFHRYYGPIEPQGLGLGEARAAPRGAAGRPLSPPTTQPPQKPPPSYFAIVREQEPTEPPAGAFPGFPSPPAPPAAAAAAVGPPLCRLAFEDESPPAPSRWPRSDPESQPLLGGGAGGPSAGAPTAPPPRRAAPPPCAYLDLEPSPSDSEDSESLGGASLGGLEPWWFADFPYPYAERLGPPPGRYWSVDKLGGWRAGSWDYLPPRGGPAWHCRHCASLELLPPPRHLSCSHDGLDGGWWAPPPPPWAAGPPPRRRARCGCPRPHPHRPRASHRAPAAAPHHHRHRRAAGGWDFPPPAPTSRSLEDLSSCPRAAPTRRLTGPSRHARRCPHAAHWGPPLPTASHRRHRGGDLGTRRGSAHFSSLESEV
NR1/NR2B, sequence (Q00960 27-1482, other chains not shown): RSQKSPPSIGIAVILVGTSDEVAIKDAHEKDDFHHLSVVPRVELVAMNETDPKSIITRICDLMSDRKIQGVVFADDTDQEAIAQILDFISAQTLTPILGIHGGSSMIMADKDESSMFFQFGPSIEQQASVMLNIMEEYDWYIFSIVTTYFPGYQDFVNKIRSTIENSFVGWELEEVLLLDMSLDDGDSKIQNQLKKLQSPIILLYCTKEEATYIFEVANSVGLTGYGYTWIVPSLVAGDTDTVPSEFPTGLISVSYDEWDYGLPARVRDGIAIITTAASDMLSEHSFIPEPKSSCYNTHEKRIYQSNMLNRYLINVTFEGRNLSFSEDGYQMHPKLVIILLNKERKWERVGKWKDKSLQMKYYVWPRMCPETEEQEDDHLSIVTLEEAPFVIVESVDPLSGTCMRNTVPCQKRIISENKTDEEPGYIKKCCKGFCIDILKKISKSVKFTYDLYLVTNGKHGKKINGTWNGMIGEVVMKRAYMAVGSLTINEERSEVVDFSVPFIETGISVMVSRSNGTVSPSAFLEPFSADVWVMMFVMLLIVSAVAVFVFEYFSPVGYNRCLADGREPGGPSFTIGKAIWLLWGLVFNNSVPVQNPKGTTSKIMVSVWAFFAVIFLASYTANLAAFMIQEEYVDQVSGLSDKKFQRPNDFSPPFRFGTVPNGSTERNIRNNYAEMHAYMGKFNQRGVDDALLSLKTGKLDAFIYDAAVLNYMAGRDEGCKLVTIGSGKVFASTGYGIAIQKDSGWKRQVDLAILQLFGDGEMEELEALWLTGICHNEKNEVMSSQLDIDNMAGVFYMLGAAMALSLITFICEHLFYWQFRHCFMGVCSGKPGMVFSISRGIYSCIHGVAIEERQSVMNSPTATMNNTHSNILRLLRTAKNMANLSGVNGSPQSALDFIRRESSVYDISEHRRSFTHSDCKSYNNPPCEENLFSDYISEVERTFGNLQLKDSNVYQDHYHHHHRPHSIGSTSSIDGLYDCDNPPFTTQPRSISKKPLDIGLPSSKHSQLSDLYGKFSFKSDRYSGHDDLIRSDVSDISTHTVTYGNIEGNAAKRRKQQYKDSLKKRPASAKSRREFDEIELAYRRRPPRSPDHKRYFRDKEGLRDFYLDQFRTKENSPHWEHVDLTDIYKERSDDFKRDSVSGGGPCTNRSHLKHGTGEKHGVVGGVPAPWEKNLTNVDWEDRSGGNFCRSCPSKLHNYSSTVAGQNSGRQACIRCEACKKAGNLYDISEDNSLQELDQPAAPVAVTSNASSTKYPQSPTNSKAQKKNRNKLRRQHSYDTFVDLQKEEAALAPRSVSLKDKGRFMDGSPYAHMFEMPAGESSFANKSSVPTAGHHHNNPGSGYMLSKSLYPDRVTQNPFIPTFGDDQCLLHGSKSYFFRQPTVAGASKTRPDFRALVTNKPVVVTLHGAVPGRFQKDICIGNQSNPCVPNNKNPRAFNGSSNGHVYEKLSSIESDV

Structure (SMILES): CCN(CC)C(=O)Oc1cccc(C(=O)Nc2cccc3ccccc23)c1 [1063-24]
- remaining activity at 100 µM (NR1/NR2B; [1]): 95%
- remaining activity at 100 µM (NR1/NR2A; [2]): 84%
- remaining activity at 100 µM (NR1/NR2D): 84%
- remaining activity at 100 µM (NR1/NR2C): 93%

- IC50 (NR1/NR2B; [3]): 334 µM
- IC50 (NR1/NR2A): 550 µM
- IC50 (NR1/NR2D; [4]): 366 µM
- IC50 (NR1/NR2C; [5]): 526 µM
Structure (SMILES): O=C(Nc1cccc2ccccc12)c1ccc2oc(=O)[nH]c2c1 [1063-31]

Structure (SMILES): CC(C)N(C(=O)Oc1ccc(C(=O)Oc2cccc3c(N)cccc23)cc1)C(C)C [1063-14]
- remaining activity at 100 µM (NR1/NR2B; [1]): 95%
- remaining activity at 100 µM (NR1/NR2A; [2]): 104%
- remaining activity at 100 µM (NR1/NR2D): 75%
- remaining activity at 100 µM (NR1/NR2C): 85%

Structure (SMILES): CCN(C)C(=O)Oc1ccc(C(=O)Nc2cccc3cc[nH]c23)cc1 [1063-30]
- remaining activity at 100 µM (NR1/NR2B; [6]): 71%
- remaining activity at 100 µM (NR1/NR2A; [7]): 89%
- IC50 (NR1/NR2D): 56 µM
- IC50 (NR1/NR2C): 72 µM

- IC50 (NR1/NR2B; [3]): 19 µM
- IC50 (NR1/NR2A): 78 µM
- IC50 (NR1/NR2D; [4]): 3 µM
- IC50 (NR1/NR2C; [5]): 5 µM
Structure (SMILES): O=C(O)CCC(=O)N1N=C(c2c(-c3ccccc3)c3cc(Br)ccc3[nH]c2=O)CC1c1ccc(Br)cc1 (stereo not shown) [compound 997]

- remaining activity at 100 µM (NR1/NR2B; [1]): 80%
- remaining activity at 100 µM (NR1/NR2A; [2]): 92%
- IC50 (NR1/NR2D; [4]): 100 µM
- IC50 (NR1/NR2C; [5]): 25 µM
Structure (SMILES): CCN(CC)C(=S)Oc1ccc(C(=O)Nc2ccc(Cl)c3ccccc23)cc1 [1063-12]

- IC50 (NR1/NR2D; [4]): 279 µM
Structure (SMILES): C=CCN(CC=C)C(=S)Oc1ccc(C(=O)Nc2cccc3ccccc23)cc1 [compound 1380]

- IC50 (NR1/NR2D; [4]): > 300 µM
Structure (SMILES): O=c1[nH]c2ccc(Br)cc2c(-c2ccccc2)c1C1=NNC(c2ccc(F)cc2)C1 (stereo not shown) [compound 1248]

- remaining activity at 30 µM (NR1/NR2B; at 30 μM, read-out: 2B percent effect at the maximum tested concentration): 99%
- remaining activity at 30 µM (NR1/NR2A; at 30 μM, read-out: 2A percent effect at the maximum tested concentration): 101%
- IC50 (NR1/NR2D; [4]): 91 µM
- IC50 (NR1/NR2C; [5]): 243 µM
Structure (SMILES): CCN(CC)C(=S)Oc1ccc(C(=O)Nc2ccc3ccccc3c2)cc1 [1063-0]

Structure (SMILES): CCN(CC)C(=O)Oc1ccc(C(=O)Nc2cccc3c2CCCC3)cc1 [1063-18]
- IC50 (NR1/NR2B): 214 µM
- remaining activity at 100 µM (NR1/NR2A; [7]): 95%
- IC50 (NR1/NR2D): 20 µM
- IC50 (NR1/NR2C): 23 µM

Structure (SMILES): CCN(CC)C(=O)Oc1ccc(C(=O)Nc2cc(C)cc3c2NCC3)cc1 [1063-32]
- IC50 (NR1/NR2B): 215 µM
- remaining activity at 100 µM (NR1/NR2A; [7]): 81%
- IC50 (NR1/NR2D): 8 µM
- IC50 (NR1/NR2C): 20 µM

- IC50 (NR1/NR2B; [3]): 59 µM
- IC50 (NR1/NR2A): 140 µM
- IC50 (NR1/NR2D; [4]): 9 µM
- IC50 (NR1/NR2C; [5]): 16 µM
Structure (SMILES): Cc1ccc(C2CC(c3c(-c4ccccc4)c4cc(Br)ccc4[nH]c3=O)=NN2C(=O)CCC(=O)O)cc1 (stereo not shown) [compound 1185]

Structure (SMILES): CCN(CC)C(=O)Oc1ccc(C(=O)Nc2ccc3c(c2)CCCC3)cc1 [1063-19]
- remaining activity at 100 µM (NR1/NR2B; [6]): 74%
- remaining activity at 100 µM (NR1/NR2A; [7]): 89%
- IC50 (NR1/NR2D): 26 µM
- IC50 (NR1/NR2C): 58 µM

- remaining activity at 100 µM (NR1/NR2B; [1]): 95%
- IC50 (NR1/NR2A): 245 µM
- remaining activity at 100 µM (NR1/NR2D): 89%
- remaining activity at 100 µM (NR1/NR2C): 98%
Structure (SMILES): O=C(O)c1ccc(C(=O)Nc2cccc3cc[nH]c23)cc1 [1063-28]

- IC50 (NR1/NR2B; [3]): 35 µM
- IC50 (NR1/NR2A): 79 µM
- IC50 (NR1/NR2D; [4]): 13 µM
- IC50 (NR1/NR2C; [5]): 22 µM
Structure (SMILES): O=C(O)CCC(=O)N1N=C(c2c(-c3ccccc3)c3cc(Br)ccc3[nH]c2=O)CC1c1ccccc1Cl (stereo not shown) [compound 1209]

- remaining activity at 100 µM (NR1/NR2B; [1]): 92%
- remaining activity at 100 µM (NR1/NR2A; [2]): 111%
- remaining activity at 100 µM (NR1/NR2D): 81%
- remaining activity at 100 µM (NR1/NR2C): 86%
Structure (SMILES): O=C(Nc1cccc2ccccc12)c1ccc(OC(=O)C2CC2)cc1 [1063-10]

- IC50 (NR1/NR2B; [3]): 502 µM
- remaining activity at 100 µM (NR1/NR2A; [2]): 87%
- IC50 (NR1/NR2D; [4]): 257 µM
- IC50 (NR1/NR2C; [5]): 135 µM
Structure (SMILES): O=C(Nc1cccc2ccccc12)c1ccc(OC(=O)N2CCCC2)cc1 [1063-6]

- remaining activity at 100 µM (NR1/NR2B; [1]): 81%
- remaining activity at 100 µM (NR1/NR2A; [2]): 92%
- remaining activity at 100 µM (NR1/NR2D): 75%
- remaining activity at 100 µM (NR1/NR2C): 80%
Structure (SMILES): Cn1c(=O)oc2ccc(C(=O)Nc3cccc4ccccc34)cc21 [1063-29]

- IC50 (NR1/NR2D; [4]): 20 µM
Structure (SMILES): O=C(O)CCC(=O)N1N=C(c2c(-c3ccccc3)c3cc(Br)ccc3[nH]c2=O)CC1c1ccccc1 (stereo not shown) [compound 1183]
